Source: patent US20250302842A1, “HETEROCYCLIC COMPOUNDS USEFUL FOR TREATMENT OF CANCERS” (JUBILANT EPIPAD LLC, priority 2020, published 2025)
pIC50: −log10 of the molar value.

molecular target: T1, PAD4 enzyme (Homo sapiens (Human), UniProt Q9UM07); assay: Ammonia Release Biochemical Assay (citrullination detected via ammonia release); conditions: BAEE substrate, 60-min preincubation, read-out: NH3 release
Description: Ammonia Release Biochemical Assay
Citrullination assay was detected via ammonia release. PAD4 enzyme was diluted to 120 nM in assay buffer (100 mM HEPES, 50 mM NaCl, 2 mM DDT, 0.6 mg/mL BSA, pH 7.4) added to wells containing various concentration of compound or DMSO vehicle (1% final) in black 384 well plate. Following a 60-min preincubation at room temperature, the reaction was initiated by the addition of substrate (1.5 mM BAEE in 200 mM HEPES, 50 mM NaCl, 350 uM CaCl2, 2 mM, pH 7.4). The reaction was stopped after 60 min by addition of stop/detection buffer containing 50 mM EDTA, 2.6 mM of o-phthaladehyde and 2.6 mM DTT. Assay was incubated at room temperature for 90 min before measuring fluorescence's (2ex 405/2em 460 nm) on Tecan reader. IC50 was calculated using XL-fit software model 205. (Ref: Nat Chem Biol. 2015 March;11 (3): 189-91).

T1 sequence (Q9UM07 whole entry): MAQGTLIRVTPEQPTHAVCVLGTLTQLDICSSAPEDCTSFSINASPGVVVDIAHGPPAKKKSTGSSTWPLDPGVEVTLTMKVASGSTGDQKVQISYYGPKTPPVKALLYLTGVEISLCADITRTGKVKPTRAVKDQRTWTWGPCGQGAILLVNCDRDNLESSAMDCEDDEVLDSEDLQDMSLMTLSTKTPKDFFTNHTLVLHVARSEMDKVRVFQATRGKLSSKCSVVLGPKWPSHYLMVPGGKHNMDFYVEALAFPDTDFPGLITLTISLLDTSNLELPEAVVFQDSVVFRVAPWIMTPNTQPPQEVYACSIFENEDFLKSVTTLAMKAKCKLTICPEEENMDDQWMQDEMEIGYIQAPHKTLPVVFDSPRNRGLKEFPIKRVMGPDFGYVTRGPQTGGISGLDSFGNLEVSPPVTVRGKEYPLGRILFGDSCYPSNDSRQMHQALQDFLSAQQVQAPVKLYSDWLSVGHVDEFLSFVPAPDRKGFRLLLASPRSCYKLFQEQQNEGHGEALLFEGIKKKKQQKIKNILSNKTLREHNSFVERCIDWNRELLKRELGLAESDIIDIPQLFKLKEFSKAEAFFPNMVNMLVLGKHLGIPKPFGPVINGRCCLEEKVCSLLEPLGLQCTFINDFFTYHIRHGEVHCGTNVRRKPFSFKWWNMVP

Row | pIC50 | SMILES
1 | ≥ 6.00 | N[C@@H]1CCCN(C(=O)c2cc3c4c(c2)nc(-c2cc5ccccc5n2CC2CC2)n4CCO3)C1 [Example 1, (R)-(3-aminopiperidin-1-yl)(2-(1-(cyclopropylmethyl)-1H-indol-2-yl)-3,4-dihydro-5-oxa-1,2a-diazaacenaphthylen-7-yl)methanone]
2 | ≥ 6.00 | COc1ccc(Cn2c(-c3nc4cc(C(=O)N5CCC[C@@H](N)C5)cc5c4n3CCO5)cc3cccc(Cl)c32)cc1 [Example 39, (R)-(3-aminopiperidin-1-yl)(2-(7-chloro-1-(4-methoxybenzyl)-1H-indol-2-yl)-3,4-dihydro-5-oxa-1,2a-diazaacenaphthylen-7-yl)methanone]
3 | ≥ 6.00 | N[C@@H]1CCCN(C(=O)c2cc3c4c(c2)nc(-c2cc5ccccc5n2CC2CCC2)n4CCO3)C1 [Example 41, (R)-(3-aminopiperidin-1-yl)(2-(1-(cyclobutylmethyl)-1H-indol-2-yl)-3,4-dihydro-5-oxa-1,2a-diazaacenaphthylen-7-yl)methanone]
4 | ≥ 6.00 | N[C@@H]1CCCN(C(=O)c2cc3c4c(c2)nc(-c2cc5cccc(Cl)c5n2CC2CCC2)n4CCO3)C1 [Example 53, (R)-(3-aminopiperidin-1-yl)(2-(7-chloro-1-(cyclobutylmethyl)-1H-indol-2-yl)-3,4-dihydro-5-oxa-1,2a-diazaacenaphthylen-7-yl)methanone]

molecular target: T1, PAD4 enzyme; assay: FP Binding assay; conditions: fluorescein labelled probe JPAD-00085, 60 minutes
Description: Binding of compounds with PAD4 enzyme was detected by FP assay. PAD4 enzyme was diluted to 1 uM in assay buffer (100 mM HEPES, 50 mM NaCl, 1 mM DTT, 5% Glycerol and 1 mM CHAPS) and added to wells containing various concentration of compounds or DMSO vehicle (1%) in a 384 well black plate. 10 nM of fluorescein labelled probe (JPAD-00085) was added to the plate. Assay plate was incubated for 60 minutes at room temperature before measuring FP reading at FP module (ex 485/2em 535 nm) on Pherastar. IC50 was calculated using XL-fit software model 205. (Ref: Nat Chem Biol. 2015 March; 11 (3): 189-91).

Row | pIC50 | SMILES
5 | ≤ 5.00 | NCC1CCCCN1C(=O)c1cc2c3c(c1)nc(-c1cc4ccccc4n1CC1CC1)n3CCO2 (stereo not shown) [Example 4, (2-(aminomethyl)piperidin-1-yl)(2-(1-(cyclopropylmethyl)-1H-indol-2-yl)-3,4-dihydro-5-oxa-1,2a-diazaacenaphthylen-7-yl)methanone]
6 | ≥ 6.00 | Cc1cccc2cc(-c3nc4cc(C(=O)N5CCC[C@@H](N)C5)cc5c4n3CCO5)n(CC3CC3)c12 [Example 8, (R)-(3-aminopiperidin-1-yl)(2-(1-(cyclopropylmethyl)-7-methyl-1H-indol-2-yl)-3,4-dihydro-5-oxa-1,2a-diazaacenaphthylen-7-yl)methanone]
7 | ≥ 6.00 | N[C@@H]1CCCN(C(=O)c2cc3c4c(c2)nc(-c2cc5ccccc5n2Cc2ccncc2)n4CCO3)C1 [Example 10, (R)-(3-aminopiperidin-1-yl)(2-(1-(pyridin-4-ylmethyl)-1H-indol-2-yl)-3,4-dihydro-5-oxa-1,2a-diazaacenaphthylene-7-yl)methanone]
8 | ≥ 6.00 | N[C@@H]1CCCN(C(=O)c2cc3c4c(c2)nc(-c2cc5ccccc5n2Cc2ccccn2)n4CCO3)C1 [Example 11, (R)-(3-aminopiperidin-1-yl)(2-(1-(pyridine-2-ylmethyl)-1H-indol-2-yl)-3,4-dihydro-5-oxa-1,2a-diazaacenaphthylen-7-yl)methanone]
9 | ≥ 6.00 | CCc1c(-c2nc3cc(C(=O)N4CCC[C@@H](N)C4)cc4c3n2CCO4)sc2ccccc12 [Example 12, (R)-(3-aminopiperidin-1-yl)(2-(3-ethylbenzo[b]thiophen-2-yl)-3,4-dihydro-5-oxa-1,2a-diazaacenaphthylen-7-yl)methanone]
10 | ≥ 6.00 | N[C@@H]1CCCN(C(=O)c2cc3c4c(c2)nc(-c2cc5ccccc5n2Cc2ccccc2F)n4CCO3)C1 [Example 14, (R)-(3-aminopiperidin-1-yl)(2-(1-(2-fluorobenzyl)-1H-indol-2-yl)-3,4-dihydro-5-oxa-1,2a-diazaacenaphthylene-7-yl)methanone]
11 | ≥ 6.00 | COc1ccc(Cn2c(-c3nc4cc(C(=O)N5CCC[C@@H](N)C5)cc5c4n3CCO5)cc3ccccc32)cc1 [Example 19, (R)-(3-aminopiperidin-1-yl)(2-(1-(4-methoxybenzyl)-1H-indol-2-yl)-3,4-dihydro-5-oxa-1,2a-diazaacenaphthylen-7-yl)methanone]
12 | ≥ 6.00 | N[C@@H]1CCCN(C(=O)c2cc3c4c(c2)nc(-c2cc5ccccc5n2CC2CC2)n4CCN3)C1 [Example 63, (R)-(3-aminopiperidin-1-yl)(2-(1-(cyclopropylmethyl)-1H-indol-2-yl)-5,6-dihydro-4H-imidazo[1,5,4-de]quinoxalin-8-yl)methanone]
13 | ≥ 6.00 | N[C@@H]1CCCN(C(=O)c2cc3c4c(c2)nc(-c2cc5cc(F)ccc5n2CC2CC2)n4CCN3)C1 [Example 64, R-(3-aminopiperidin-1-yl)(2-(1-(cyclopropylmethyl)-5-fluoro-1H-indol-2-yl)-5,6-dihydro-4H-imidazo[1,5,4-de]quinoxalin-8-yl)methanone]
14 | ≥ 6.00 | CN1CCn2c(-c3cc4ccccc4n3CC3CC3)nc3cc(C(=O)N4CCC[C@@H](N)C4)cc1c32 [Example 72, R-(3-aminopiperidin-1-yl)(2-(1-(cyclopropylmethyl)-1H-indol-2-yl)-6-methyl-5,6-dihydro-4H-imidazo[1,5,4-de]quinoxalin-8-yl)methanone]
15 | ≥ 6.00 | COc1ccc2cc(-c3nc4cc(C(=O)N5CCC[C@@H](N)C5)cc5c4n3CCN5)n(CC3CC3)c2c1 [Example 73, (R)-(3-aminopiperidin-1-yl)(2-(1-(cyclopropylmethyl)-6-methoxy-1H-indol-2-yl)-5,6-dihydro-4H-imidazo[1,5,4-de]quinoxalin-8-yl)methanone]
16 | ≥ 6.00 | N[C@@H]1CCCN(C(=O)c2cc3c4c(c2)nc(-c2cc5cc(F)c(F)cc5n2CC2CC2)n4CCN3)C1 [Example 77, (R)-(3-aminopiperidin-1-yl)(2-(1-(cyclopropylmethyl)-5,6-difluoro-1H-indol-2-yl)-5,6-dihydro-4H-imidazo[1,5,4-de]quinoxalin-8-yl)methanone]
